Measurements: PubChem BioAssay AID256 (DTP/NCI, 2004)
Values joined by “and” are separate entries in the source; they are usually repeats but may differ in a detail not shown here. Identical values can stand only once. Toxic doses and inconclusive results are not listed. The calls were made as follows: active = survival T/C of 150% or more; inactive = T/C below 125% in these data. Non-standard residues stand in square brackets, D forms with d. Residues, ends and D or L forms follow the SMILES beside them. ξ: configuration not given here. *: point of attachment. ξF = NC(Cc1ccccc1)C(=O)O; Cbz = O=C(OCc1ccccc1)*

Tested on: CD2F1 mice, L1210 leukemia ip, survival T/C
Test: NCI In Vivo Anticancer Drug Screen. Data for tumor model L1210 Leukemia (intraperitoneal) in CD2F1 (CDF1) mice
Conditions: higher = longer survival
Summary of the method: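 Read-out first: treated-group measurement over vehicle-control measurement, expressed as a ratio. Animals bore a transplanted tumor line and were dosed with compound or vehicle.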

[1] = endpoint: mean survival time, dose: 100.0 mg/kg/injection, schedule: Q04DX003 (ip), vehicle: saline with Tween-80
[2] = endpoint: mean survival time, dose: 200.0 mg/kg/injection, schedule: Q04DX003 (ip), vehicle: saline with Tween-80
[3] = endpoint: mean survival time, dose: 400.0 mg/kg/injection, schedule: Q04DX003 (ip), vehicle: saline with Tween-80
[4] = endpoint: mean survival time, dose: 12.5 mg/kg/injection, schedule: Q04DX002 (ip), vehicle: saline with Tween-80
[5] = endpoint: mean survival time, dose: 25.0 mg/kg/injection, schedule: Q04DX002 (ip), vehicle: saline with Tween-80
[6] = endpoint: mean survival time, dose: 50.0 mg/kg/injection, schedule: Q04DX002 (ip), vehicle: saline with Tween-80
[7] = endpoint: mean survival time, dose: 100.0 mg/kg/injection, schedule: Q01DX009 (ip), vehicle: saline with Tween-80
[8] = endpoint: mean survival time, dose: 200.0 mg/kg/injection, schedule: Q01DX009 (ip), vehicle: saline with Tween-80
[9] = endpoint: mean survival time, dose: 400.0 mg/kg/injection, schedule: Q01DX009 (ip), vehicle: saline with Tween-80
[10] = endpoint: mean survival time, dose: 12.5 mg/kg/injection, schedule: Q01DX005 (ip), vehicle: distilled water + Tween-80
[11] = endpoint: mean survival time, dose: 25.0 mg/kg/injection, schedule: Q01DX005 (ip), vehicle: distilled water + Tween-80
[12] = endpoint: mean survival time, dose: 50.0 mg/kg/injection, schedule: Q01DX005 (ip), vehicle: distilled water + Tween-80
[13] = endpoint: mean survival time, dose: 100.0 mg/kg/injection, schedule: Q01DX005 (ip), vehicle: distilled water + Tween-80
[14] = endpoint: mean survival time, dose: 100.0 mg/kg/injection, schedule: Q01DX001 (ip), vehicle: saline with Tween-80
[15] = endpoint: mean survival time, dose: 200.0 mg/kg/injection, schedule: Q01DX001 (ip), vehicle: saline with Tween-80
[16] = endpoint: mean survival time, dose: 200.0 mg/kg/injection, schedule: Q04DX003 (ip), vehicle: saline
[17] = endpoint: mean survival time, dose: 50.0 mg/kg/injection, schedule: Q01DX009 (ip), vehicle: saline
[18] = endpoint: mean survival time, dose: 50.0 mg/kg/injection, schedule: Q01DX009 (ip), vehicle: saline with Tween-80

Measured: T/C

ClC1C2c3ccccc3C(C1Cl)[n+]1ccccc12 (stereo unspecified)
inactive: endpoint: mean survival time, dose: 12.5 mg/kg/injection, schedule: Q04DX003 (ip), vehicle: Klucel (hydroxypropylcellulose) (HPC) 93 % of control | endpoint: mean survival time, dose: 25.0 mg/kg/injection, schedule: Q04DX003 (ip), vehicle: Klucel (hydroxypropylcellulose) (HPC) 98 % of control

O=C(O)C12CC3CC(CC(C3)C1)C2
inactive: [1] 103 % of control | [2] 105 % of control | [3] 102 % of control

COc1ccc(C(O)(c2ccccc2)C(O)c2ccccc2)cc1 (stereo unspecified)
inactive: [4] 93 % of control | [5] 86 % of control | [6] 86 % of control | [1] 93 % of control | [2] 87 % of control | [3] 94 % of control and 89 % of control

C=C[C](=C)[Pb]([CH2]C)([CH2]C)[CH2]C
inactive: endpoint: mean survival time, dose: 75.0 mg/kg/injection, schedule: Q01DX001 (ip), vehicle: saline 100 % of control | endpoint: mean survival time, dose: 150.0 mg/kg/injection, schedule: Q01DX001 (ip), vehicle: saline 97 % of control | endpoint: mean survival time, dose: 300.0 mg/kg/injection, schedule: Q01DX001 (ip), vehicle: saline 107 % of control

CCC(N)(CO)CO
inactive: endpoint: mean survival time, dose: 100.0 mg/kg/injection, schedule: Q01DX009 (ip), vehicle: saline 100 % of control | endpoint: mean survival time, dose: 200.0 mg/kg/injection, schedule: Q01DX009 (ip), vehicle: saline 94 % of control | endpoint: mean survival time, dose: 400.0 mg/kg/injection, schedule: Q01DX009 (ip), vehicle: saline 94 % of control

C[n+]1cccc(C(=O)c2ccccc2)c1
inactive: endpoint: mean survival time, dose: 75.0 mg/kg/injection, schedule: Q01DX001 (ip), vehicle: other 100 % of control

COc1ccc(-c2nc(C)cc3cc(OC)c(OC)cc23)cc1OC
inactive: endpoint: mean survival time, dose: 12.5 mg/kg/injection, schedule: Q01DX009 (ip), vehicle: water 94 % of control | endpoint: mean survival time, dose: 25.0 mg/kg/injection, schedule: Q01DX009 (ip), vehicle: water 94 % of control | endpoint: mean survival time, dose: 50.0 mg/kg/injection, schedule: Q01DX009 (ip), vehicle: water 91 % of control | endpoint: mean survival time, dose: 100.0 mg/kg/injection, schedule: Q01DX009 (ip), vehicle: water 89 % of control

C1CCC(N2CCOCC2)CC1
inactive: endpoint: mean survival time, dose: 25.0 mg/kg/injection, schedule: Q04DX002 (ip), vehicle: saline 105 % of control | endpoint: mean survival time, dose: 50.0 mg/kg/injection, schedule: Q04DX002 (ip), vehicle: saline 102 % of control

C#CCOC1CCCCC1O (stereo unspecified)
inactive: endpoint: mean survival time, dose: 100.0 mg/kg/injection, schedule: Q04DX003 (ip), vehicle: acetone 101 % of control

[N-]=[N+]=CC(=O)CCC(NC(=O)OCc1ccccc1)C(=O)OCc1ccccc1 (stereo unspecified)
inactive: endpoint: median survival time, dose: 200.0 mg/kg/injection, schedule: Q01DX009 (ip), vehicle: Klucel (hydroxypropylcellulose) (HPC) 123 % of control and 96 % of control and 111 % of control | endpoint: median survival time, dose: 400.0 mg/kg/injection, schedule: Q01DX009 (ip), vehicle: Klucel (hydroxypropylcellulose) (HPC) 114 % of control

CC1(CCOCc2ccccc2)NC(=O)NC1=O (stereo unspecified)
inactive: [7] 95 % of control | [1] 97 % of control | [8] 95 % of control | [2] 98 % of control | [9] 98 % of control | [3] 98 % of control

Cn1c(=O)c2[nH]c(-c3cccnc3)nc2n(C)c1=O
inactive: [10] 92 % of control | [11] 98 % of control | [12] 98 % of control | [13] 98 % of control | endpoint: mean survival time, dose: 200.0 mg/kg/injection, schedule: Q01DX005 (ip), vehicle: distilled water + Tween-80 116 % of control

CC(C)C1CC2CCC3C(C)(C(=O)O)CCCC3(C)C2CC1CO (stereo unspecified)
inactive: [7] 87 % of control | [8] 91 % of control | [9] 86 % of control

N#C/C(=C\C1CCC(Cl)C(Cl)C1)C1CCC([N+](=O)[O-])CC1 (stereo unspecified)
inactive: [5] 94 % of control | [6] 88 % of control

CC(=O)Nc1cccc(Cl)c1
inactive: [14] 92 % of control | [7] 106 % of control | [1] 98 % of control and 103 % of control | [15] 100 % of control | [8] 96 % of control | [2] 98 % of control and 116 % of control | endpoint: mean survival time, dose: 400.0 mg/kg/injection, schedule: Q01DX001 (ip), vehicle: saline with Tween-80 94 % of control | [9] 91 % of control | [3] 94 % of control and 109 % of control

NC(=O)C(Cc1ccccc1)NC(=O)CNC(=O)CNC(=O)OCc1ccccc1 (stereo not drawn) (Cbz-Gly-Gly-[ξF]-NH2)
inactive: [1] 97 % of control | [2] 96 % of control | [3] 99 % of control

O=C(O)C1CCCC(C(=O)O)[N-]1.O=C(O)C1CCCC(C(=O)O)[N-]1.[Cr+2] (stereo unspecified)
inactive: endpoint: mean survival time, dose: 100.0 mg/kg/injection, schedule: Q04DX003 (ip), vehicle: saline 104 % of control | [16] 101 % of control | endpoint: mean survival time, dose: 400.0 mg/kg/injection, schedule: Q04DX003 (ip), vehicle: saline 104 % of control

CN1C(=O)CC(c2ccc(N3C(=O)C=CC3=O)cc2)C1=O (stereo unspecified)
inactive: endpoint: mean survival time, dose: 6.25 mg/kg/injection, schedule: Q04DX002 (ip), vehicle: saline with Tween-80 96 % of control | [4] 103 % of control | [5] 96 % of control

Cc1c(N=[N+]=[N-])c(NS(=O)(=O)c2ccccc2)c(C)c(N=[N+]=[N-])c1NS(=O)(=O)c1ccccc1
inactive: [1] 96 % of control | [2] 93 % of control | [3] 93 % of control

COc1cc2cc3c4cc(OC)c(OC)cc4cc[n+]3c(C)c2cc1OC (tested in a mixture with another compound)
inactive: [17] 95 % of control | endpoint: mean survival time, dose: 50.0 mg/kg/injection, schedule: Q04DX003 (ip), vehicle: saline 91 % of control | [16] 122 % of control | [3] 88 % of control

Cc1c(N)cc([N+](=O)[O-])c(C)c1[N+](=O)[O-]
inactive: [18] 110 % of control | [7] 104 % of control | [1] 98 % of control | [8] 117 % of control | [2] 98 % of control

c1ccc2c(c1)C1c3cccc[n+]3C2C2C1CC1C3c4ccccc4C(C12)[n+]1ccccc13 (stereo unspecified)
inactive: endpoint: mean survival time, dose: 12.5 mg/kg/injection, schedule: Q04DX003 (ip), vehicle: saline 98 % of control

c1ccc([B-]2([C+]3CCCCC3)N3CCCCC3C3CCCCN32)cc1 (stereo unspecified)
inactive: endpoint: mean survival time, dose: 3.12 mg/kg/injection, schedule: Q01DX009 (ip), vehicle: saline 90 % of control | endpoint: mean survival time, dose: 6.25 mg/kg/injection, schedule: Q01DX009 (ip), vehicle: saline 95 % of control | endpoint: mean survival time, dose: 12.5 mg/kg/injection, schedule: Q01DX009 (ip), vehicle: saline 101 % of control | endpoint: mean survival time, dose: 25.0 mg/kg/injection, schedule: Q01DX009 (ip), vehicle: saline 102 % of control | [17] 86 % of control

COc1ccc(Cl)c2c1C(=O)C(=O)N2
inactive: [1] 91 % of control | [2] 98 % of control | [3] 98 % of control

COC(=O)C(Cl)C(Cl)c1ccccc1 (stereo unspecified)
inactive: [7] 100 % of control | [8] 105 % of control | [9] 101 % of control

Cc1cc(Cl)c(OCC(=O)O)c(Cl)c1
inactive: [1] 100 % of control | [2] 100 % of control

Nc1ncnc2c1ncn2C1OC(CO)C(=C(Br)Br)C1O (stereo unspecified)
inactive: endpoint: mean survival time, dose: 6.25 mg/kg/injection, schedule: Q01DX005 (ip), vehicle: distilled water + Tween-80 103 % of control | [10] 100 % of control | [11] 97 % of control | [12] 101 % of control | [13] 100 % of control

NNC(=O)c1nc(N)n[nH]1
inactive: [1] 101 % of control | [2] 103 % of control | [3] 104 % of control

Cc1ncnc2c1ncn2C1OC(CO)C(O)C1O (stereo unspecified)
inactive: endpoint: mean survival time, dose: 0.25 mg/kg/injection, schedule: Q01DX005 (ip), vehicle: saline 113 % of control | endpoint: mean survival time, dose: 0.5 mg/kg/injection, schedule: Q01DX005 (ip), vehicle: saline 112 % of control | endpoint: mean survival time, dose: 1.0 mg/kg/injection, schedule: Q01DX005 (ip), vehicle: saline 124 % of control | endpoint: mean survival time, dose: 4.0 mg/kg/injection, schedule: Q01DX005 (ip), vehicle: saline 113 % of control

COc1cc(OC)c(NC(=O)OCCSc2ccc(Cl)cc2)cc1Cl
inactive: [18] 92 % of control | [7] 92 % of control | [8] 92 % of control

O=S1(=O)CCS(=O)(=O)C1
inactive: endpoint: mean survival time, dose: 50.0 mg/kg/injection, schedule: Q01DX001 (ip), vehicle: saline with Tween-80 104 % of control | [14] 98 % of control | [15] 95 % of control

COC1CCC2=C(C1)C(=O)CC1c3ccccc3CCN21 (stereo unspecified) (tested in a mixture with another compound)
inactive: endpoint: mean survival time, dose: 6.25 mg/kg/injection, schedule: Q01DX009 (ip), vehicle: saline with Tween-80 96 % of control | endpoint: mean survival time, dose: 12.5 mg/kg/injection, schedule: Q01DX009 (ip), vehicle: saline with Tween-80 98 % of control | endpoint: mean survival time, dose: 25.0 mg/kg/injection, schedule: Q01DX009 (ip), vehicle: saline with Tween-80 96 % of control

CCOC(=O)CC1CC(CN)(C(=O)OCC)CO1 (stereo unspecified)
inactive: [1] 95 % of control | [2] 95 % of control | [3] 100 % of control
